From ChEMBL document CHEMBL2390891, “Discovery of new potent inhibitors for carbonic anhydrase IX by structure-based virtual screening” (Bioorg Med Chem Lett, 2013) come the findings set out here.

One test addresses Carbonic anhydrase 9 (Homo sapiens, UniProt Q16790). Description: Inhibition of GST-tagged recombinant carbonic anhydrase-9 catalytic domain (unknown origin).
In another test the target is Carbonic anhydrase 2 (Homo sapiens, UniProt P00918). Description: Inhibition of full length carbonic anhydrase-2 in human erythrocytes. It counts as cell-based.
A further test addresses Carbonic anhydrase 1 (Homo sapiens, UniProt P00915). Description: Inhibition of full length carbonic anhydrase-1 in human erythrocytes. Type of test: cell-based.

Chain of Carbonic anhydrase 1 (P00915 whole entry): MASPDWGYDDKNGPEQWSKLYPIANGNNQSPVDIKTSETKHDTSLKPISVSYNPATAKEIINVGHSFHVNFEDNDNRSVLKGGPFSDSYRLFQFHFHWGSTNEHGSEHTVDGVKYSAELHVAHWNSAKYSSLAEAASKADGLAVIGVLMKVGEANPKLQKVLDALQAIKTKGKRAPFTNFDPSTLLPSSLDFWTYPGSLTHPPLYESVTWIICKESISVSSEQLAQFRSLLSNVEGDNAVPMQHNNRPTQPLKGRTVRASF

By IC50 is commonly meant the concentration that inhibits the measured activity by half. Take `NS(=O)(=O)c1cc(C(=O)NCCOc2ccccc2)c(Cl)cc1Cl`: the IC50 at Carbonic anhydrase 9 is 10.4 nM; against Carbonic anhydrase 2, 10.6 nM; on Carbonic anhydrase 1, 16.7 nM. As for `NS(=O)(=O)c1ccc(NC(=S)NC(=O)c2ccccc2)cc1`, the IC50 at Carbonic anhydrase 9 came to 2.86 nM.

For the molecule `NS(=O)(=O)c1ccc(-n2cccc2/C=C2/C(=O)NN(c3ccc(F)cc3)C2=O)cc1`, the IC50 on Carbonic anhydrase 9 is 3.11 nM; against Carbonic anhydrase 2, 42 nM. As for `NS(=O)(=O)c1ccc(/N=C2/NC(=O)/C(=C/c3cc(O)ccc3Br)S2)cc1`, the IC50 on Carbonic anhydrase 9 was found to be 4.53 nM. Same read-out and setting: the figure for `Cc1ccc(N2NC(=O)/C(=C/c3cccn3-c3ccc(S(N)(=O)=O)cc3)C2=O)cc1` is 14.9 nM. Take `NS(=O)(=O)c1ccc(CCNCc2cccc3ccccc23)cc1`: the IC50 on Carbonic anhydrase 9 is 18.8 nM; against Carbonic anhydrase 2 it was 153 nM; against Carbonic anhydrase 1 it was 173 nM. As for `CC1=NN(c2ccc(S(N)(=O)=O)cc2)C(=O)/C1=C\C=C\c1ccccc1`, the IC50 on Carbonic anhydrase 9 came to 19.1 nM. Consider `NS(=O)(=O)c1ccc(NC(=O)c2cccc(N3C(=O)CCC3=O)c2)cc1`, for which the half-inhibitory concentration (IC50) at Carbonic anhydrase 9 came out at 21.6 nM.

Regarding `NS(=O)(=O)c1cccc(NS(=O)(=O)c2ccc3c4c(cccc24)C(=O)N3)c1`, at Carbonic anhydrase 9, the IC50 turned out to be 28.4 nM.

Consider `COc1ccc(Cl)cc1CNCCc1ccc(S(N)(=O)=O)cc1`, for which the IC50 at Carbonic anhydrase 9 was 68.5 nM. Still for that read-out and setting: the value for `NS(=O)(=O)c1ccc(CNC2CC(=O)N(c3cccc(Br)c3)C2=O)cc1` (stereo not given) was 199 nM; that for `COc1ccc(CNc2ccc(S(N)(=O)=O)cc2)cc1OC` was 342 nM. In the case of `CC1=NN(c2cccc(S(N)(=O)=O)c2)C(=O)C1`, the 50% inhibitory concentration (IC50) is 588 nM on Carbonic anhydrase 9, 809 nM at Carbonic anhydrase 2 and 1190 nM on Carbonic anhydrase 1.
